The subject of the experiment is BDF1 mice, P388 leukemia ip, median survival T/C. Description: NCI In Vivo Anticancer Drug Screen. Data for tumor model P388 Leukemia (intraperitoneal) in B6D2F1 (BDF1) mice. Particulars: endpoint: median survival time, higher = longer survival. The gist of the method: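 Read-out is survival of treated animals expressed relative to the vehicle group, as a T/C ratio.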

[1] abbreviates: dose: 25.0 mg/kg/injection, schedule: Q01DX009 (ip), vehicle: Klucel (hydroxypropylcellulose) (HPC).
The mark [2] stands for this setting: dose: 50.0 mg/kg/injection, schedule: Q01DX009 (ip), vehicle: Klucel (hydroxypropylcellulose) (HPC).
The mark [3] stands for this setting: dose: 100.0 mg/kg/injection, schedule: Q01DX009 (ip), vehicle: Klucel (hydroxypropylcellulose) (HPC).
Where [4] appears, read: dose: 200.0 mg/kg/injection, schedule: Q01DX009 (ip), vehicle: Klucel (hydroxypropylcellulose) (HPC).
Where [5] appears, read: dose: 4.5 mg/kg/injection, schedule: Q01DX009 (ip), vehicle: Klucel (hydroxypropylcellulose) (HPC).
The mark [6] stands for this setting: dose: 50.0 mg/kg/injection, schedule: Q04DX003 (ip), vehicle: saline with Tween-80.
Where [7] appears, read: dose: 100.0 mg/kg/injection, schedule: Q04DX003 (ip), vehicle: Klucel (hydroxypropylcellulose) (HPC).
[8] abbreviates: dose: 100.0 mg/kg/injection, schedule: Q04DX003 (ip), vehicle: saline with Tween-80.
Where [9] appears, read: dose: 200.0 mg/kg/injection, schedule: Q04DX003 (ip), vehicle: saline with Tween-80.
[10] abbreviates: dose: 400.0 mg/kg/injection, schedule: Q04DX003 (ip), vehicle: saline with Tween-80.

“And” between values parts separate entries of the source, which are not always exact repeats. Equal values may be shown once. Toxic doses and inconclusive results are not listed.

With `O=NN(CCCl)C(=O)NCC1CCC(CNC(=O)N(CCCl)N=O)CC1` (centres undefined), the T/C is 113 % of control (dose: 3.13 mg/kg/injection, schedule: Q01DX009 (ip), vehicle: other); 122 % of control (dose: 6.25 mg/kg/injection, schedule: Q01DX009 (ip), vehicle: other); 116 % of control (dose: 12.5 mg/kg/injection, schedule: Q01DX009 (ip), vehicle: other); 154 % of control under setting [1]; 154 % of control (dose: 26.4 mg/kg/injection, schedule: Q01DX009 (ip), vehicle: other); 159 % of control (dose: 40.0 mg/kg/injection, schedule: Q01DX009 (ip), vehicle: other). In addition, the T/C by setting is: (dose: 44.0 mg/kg/injection, schedule: Q01DX009 (ip), vehicle: other) 227 % of control; under setting [2], 115 % of control; (dose: 66.0 mg/kg/injection, schedule: Q01DX009 (ip), vehicle: other) 240 % of control; (dose: 66.0 mg/kg/injection, schedule: Q04DX003 (ip), vehicle: saline sonified) 170 % of control; under setting [3], 169 % of control; (dose: 100.0 mg/kg/injection, schedule: Q01DX009 (ip), vehicle: other) 272 % of control and 300 % of control. For the same compound, the T/C is, setting by setting: (dose: 100.0 mg/kg/injection, schedule: Q04DX003 (ip), vehicle: saline sonified) 175 % of control and 185 % of control; (dose: 150.0 mg/kg/injection, schedule: Q01DX009 (ip), vehicle: other) 245 % of control; (dose: 150.0 mg/kg/injection, schedule: Q04DX003 (ip), vehicle: saline sonified) 180 % of control; under setting [4], 176 % of control; (dose: 200.0 mg/kg/injection, schedule: Q04DX003 (ip), vehicle: saline sonified) 240 % of control.
Turning to `NC(CCSCc1ccc(N(CCCl)CCCl)cc1)C(=O)O` (centres undefined), the T/C was 163 % of control (dose: 2.0 mg/kg/injection, schedule: Q01DX009 (ip), vehicle: Klucel (hydroxypropylcellulose) (HPC)); 186 % of control (dose: 3.0 mg/kg/injection, schedule: Q01DX009 (ip), vehicle: Klucel (hydroxypropylcellulose) (HPC)); 190 % of control under setting [5]; 169 % of control (dose: 5.0 mg/kg/injection, schedule: Q04DX003 (ip), vehicle: Klucel (hydroxypropylcellulose) (HPC)); 183 % of control and 213 % of control (dose: 7.0 mg/kg/injection, schedule: Q01DX009 (ip), vehicle: Klucel (hydroxypropylcellulose) (HPC)); 184 % of control (dose: 8.0 mg/kg/injection, schedule: Q04DX003 (ip), vehicle: Klucel (hydroxypropylcellulose) (HPC)). The T/C (dose: 11.0 mg/kg/injection, schedule: Q01DX009 (ip), vehicle: Klucel (hydroxypropylcellulose) (HPC)) was 212 % of control; the T/C (dose: 13.0 mg/kg/injection, schedule: Q04DX003 (ip), vehicle: Klucel (hydroxypropylcellulose) (HPC)) is 207 % of control; the T/C (dose: 14.0 mg/kg/injection, schedule: Q04DX003 (ip), vehicle: alcohol) was 230 % of control; the T/C (dose: 17.0 mg/kg/injection, schedule: Q01DX009 (ip), vehicle: Klucel (hydroxypropylcellulose) (HPC)) was 225 % of control and 272 % of control; the T/C (dose: 20.0 mg/kg/injection, schedule: Q04DX003 (ip), vehicle: Klucel (hydroxypropylcellulose) (HPC)) was 230 % of control and 204 % of control; the T/C (dose: 21.0 mg/kg/injection, schedule: Q04DX003 (ip), vehicle: alcohol) is 226 % of control. For the same compound, the T/C reads like this: under setting [1], 272 % of control; (dose: 30.0 mg/kg/injection, schedule: Q04DX003 (ip), vehicle: Klucel (hydroxypropylcellulose) (HPC)) 272 % of control; (dose: 33.0 mg/kg/injection, schedule: Q04DX003 (ip), vehicle: saline with Tween-80) 168 % of control and 213 % of control; (dose: 37.0 mg/kg/injection, schedule: Q01DX009 (ip), vehicle: Klucel (hydroxypropylcellulose) (HPC)) 272 % of control; (dose: 45.0 mg/kg/injection, schedule: Q04DX003 (ip), vehicle: Klucel (hydroxypropylcellulose) (HPC)) 268 % of control; under setting [2], 89 % of control. Also, the T/C was 227 % of control and 272 % of control under setting [6]; 230 % of control (dose: 67.0 mg/kg/injection, schedule: Q04DX003 (ip), vehicle: Klucel (hydroxypropylcellulose) (HPC)); 272 % of control and 190 % of control (dose: 75.0 mg/kg/injection, schedule: Q04DX003 (ip), vehicle: saline with Tween-80); 230 % of control and 250 % of control under setting [7]; 123 % of control (dose: 150.0 mg/kg/injection, schedule: Q04DX003 (ip), vehicle: Klucel (hydroxypropylcellulose) (HPC)); 120 % of control (dose: 375.0 micrograms/kg/injection, schedule: Q04DX003 (ip), vehicle: saline with Tween-80).
Turning to `CCNC(C)(C)C(O)c1ccc(Cl)s1` (centres undefined), the T/C is 105 % of control (dose: 25.0 mg/kg/injection, schedule: Q01DX009 (ip), vehicle: saline with Tween-80); 102 % of control (dose: 25.0 mg/kg/injection, schedule: Q04DX003 (ip), vehicle: saline with Tween-80); 88 % of control (dose: 50.0 mg/kg/injection, schedule: Q01DX009 (ip), vehicle: saline with Tween-80); 100 % of control under setting [6]; 88 % of control (dose: 100.0 mg/kg/injection, schedule: Q01DX009 (ip), vehicle: saline with Tween-80); 86 % of control and 101 % of control under setting [8]. For the same compound, the T/C under setting [9] is 88 % of control and 104 % of control; the T/C under setting [10] is 92 % of control.
`CC1C/C(=C\NC(N)=O)C(=O)O1` (centres undefined): the T/C by setting is: (dose: 100.0 mg/kg/injection, schedule: Q04DX003 (ip), vehicle: water) 103 % of control; (dose: 200.0 mg/kg/injection, schedule: Q04DX003 (ip), vehicle: water) 102 % of control; (dose: 400.0 mg/kg/injection, schedule: Q04DX003 (ip), vehicle: water) 103 % of control.
For `NC(CS(=O)(=O)c1ccc(N(CCCl)CCCl)cc1)C(=O)O` (centres undefined), the T/C is 108 % of control (dose: 100.0 mg/kg/injection, schedule: Q01DX001 (ip), vehicle: saline with Tween-80); 101 % of control (dose: 200.0 mg/kg/injection, schedule: Q01DX001 (ip), vehicle: saline with Tween-80); 90 % of control (dose: 400.0 mg/kg/injection, schedule: Q01DX001 (ip), vehicle: saline with Tween-80).
As for `CC(C)CCCC(C)CCO` (centres undefined), the T/C (dose: 50.0 mg/kg/injection, schedule: Q01DX009 (ip), vehicle: saline) was 100 % of control; the T/C (dose: 100.0 mg/kg/injection, schedule: Q01DX009 (ip), vehicle: saline) is 100 % of control; the T/C (dose: 200.0 mg/kg/injection, schedule: Q01DX009 (ip), vehicle: saline) is 101 % of control.
Turning to `C=C(C)C(=O)OC1CC2=CC(CC3(C)OC3C3OC(=O)C(=C)C13)OC2=O` (centres undefined), the T/C under setting [5] is 101 % of control; the T/C (dose: 18.0 mg/kg/injection, schedule: Q01DX009 (ip), vehicle: Klucel (hydroxypropylcellulose) (HPC)) was 106 % of control; the T/C (dose: 36.0 mg/kg/injection, schedule: Q01DX009 (ip), vehicle: Klucel (hydroxypropylcellulose) (HPC)) was 117 % of control.
As for `O=[N+]([O-])c1ccc(S(=O)(=O)Nc2ccccc2-c2ccccc2)cc1`, the T/C reads like this: under setting [8], 96 % of control; under setting [9], 96 % of control; under setting [10], 100 % of control.
On to `Clc1ccccc1CSc1ncnc2nc[nH]c12`, for which the T/C under setting [3] was 90 % of control; the T/C under setting [7] was 95 % of control; the T/C under setting [4] was 90 % of control; the T/C (dose: 200.0 mg/kg/injection, schedule: Q04DX003 (ip), vehicle: Klucel (hydroxypropylcellulose) (HPC)) is 100 % of control; the T/C (dose: 400.0 mg/kg/injection, schedule: Q01DX009 (ip), vehicle: Klucel (hydroxypropylcellulose) (HPC)) is 104 % of control; the T/C (dose: 400.0 mg/kg/injection, schedule: Q04DX003 (ip), vehicle: Klucel (hydroxypropylcellulose) (HPC)) is 100 % of control.
For `Cc1cc(N(CCCl)CCCl)ccc1C=Nc1ccc(F)cc1`, the T/C under setting [10] was 150 % of control and the T/C (dose: 600.0 mg/kg/injection, schedule: Q04DX003 (ip), vehicle: saline with Tween-80) was 179 % of control.
Take `c1ccc(-c2nn(-c3ccccc3)[n+](-c3cccc4ccccc34)n2)cc1`: the T/C was 103 % of control (dose: 2.0 mg/kg/injection, schedule: Q01DX009 (ip), vehicle: saline with Tween-80) and 112 % of control (dose: 4.0 mg/kg/injection, schedule: Q01DX009 (ip), vehicle: saline with Tween-80).

Source of the values: PubChem BioAssay AID328 (DTP/NCI, 2004).
